Experiments:
[1] = system: human MRC-5 fibroblasts; experiment: Quantitative evaluation of cytotoxicity, viability assay using MU reagent; type: cell-based; conditions: for cytotoxicity (percentage of viability below 70% compared to culture medium): result in words
Description: Two experiments were performed. […] All samples were assayed in triplicate.
The cytotoxicity is defined by a viability of a test substance below 70% in compartion to culture medium.

[2] = system: human MRC-5 fibroblasts; experiment: Qualitative evaluation of cytotoxicity by microscopic examination; conditions: mean ± SD of scores
Description: In vitro cytotoxicity of Mesna in human MRC-5 fibroblasts was evaluated. Two experiments were performed. The first one was performed with two doses of Mesna (5% and 10%) and NaCl (7.06 and 3.53%) and the second one was performed with three doses of Mesna (5, 10 and 20%) and the three corresponding doses of NaCl (7.06, 3.53 and 1.76%). All samples were assayed in triplicate. Evaluation of cytotoxicity was evaluated after the following times: T15 min, T30 min, T1h, T2h, T4h, T8h and T24h.
Cells were thawed according to the standard operating procedure No. TEC-005 and subcultured according to the standard operating procedure No. TEC-001. The cell line was cultured in 75 cm^2-flasks in appropriated culture medium.
A score was assigned based on observations.

[3] = Mesna purity before and after sterilization using X-rays and gamma irradiation; type: physicochemical
From the text: Mesna purity has been evaluated prior and after sterilization using X-rays and gamma irradiation.

| Mesna purity ([3]; After X-ray irradiation) | Mesna purity ([3]; After gamma irradiation) | Mesna purity ([3]; Prior irradiation) | SMILES | percentage of cell viability compared to culture medium (100% of viability) ([1]; 15 min (0.25 h) exposure) [%] | percentage of cell viability compared to culture medium (100% of viability) ([1]; 30 min (0.5 h) exposure) [%] | percentage of cell viability compared to culture medium (100% of viability) ([1]; 1 h exposure) [%] | percentage of cell viability compared to culture medium (100% of viability) ([1]; 2 h exposure) [%] | percentage of cell viability compared to culture medium (100% of viability) ([1]; 4 h exposure) [%] | percentage of cell viability compared to culture medium (100% of viability) ([1]; 8 h exposure) [%] | percentage of cell viability compared to culture medium (100% of viability) ([1]; 24 h exposure) [%] | cytotoxicity score (microscopic examination) ([2]; 15 min exposure) | cytotoxicity score (microscopic examination) ([2]; 30 min exposure) | cytotoxicity score (microscopic examination) ([2]; 1 h exposure) | cytotoxicity score (microscopic examination) ([2]; 2 h exposure) | cytotoxicity score (microscopic examination) ([2]; 4 h exposure) | cytotoxicity score (microscopic examination) ([2]; 8 h exposure) | cytotoxicity score (microscopic examination) ([2]; 24 h exposure) | cytotoxicity (percentage of viability below 70% compared to culture medium) [1] |
| --- | --- | --- | --- | --- | --- | --- | --- | --- | --- | --- | --- | --- | --- | --- | --- | --- | --- | --- |
| – | – | – | [Cl-].[Na+] [NaCl 7.06%, NaCl] | 45.2 | 25.3 | 12.7 | 12.3 | 10.8 | 14.6 | 7.3 | 0.0 ± 0.0 | 0.5 ± 0.7 | 2.5 ± 0.7 | 3.0 ± 0.0 | 3.0 ± 0.0 | 3.0 ± 0.0 | 4 ± 0 | – |
| 89.3 | 89.1 | 89.4 | O=S(=O)([O-])CCS.[Na+] [Pure lyophilized Mesna, Sodium 2-mercaptoethanesulfonate] | – | – | – | – | – | – | – | – | – | – | – | – | – | – | – |
| – | – | – | O=S(=O)([O-])CCS.[Na+] [Mesna 5%, Sodium 2-mercaptoethanesulfonate] | 66 | 47.6 | 50.4 | 39.7 | 12 | 3.4 | 1.4 | 0.0 ± 0.0 | 1.5 ± 0.7 | 1.5 ± 0.7 | 3.0 ± 0.0 | 3.0 ± 0.0 | 3.0 ± 0.0 | 4 ± 0 | – |
| – | – | – | [Cl-].[Na+] [NaCl 1.76%, NaCl] | 88.8 | 102.6 | 95 | 75.5 | 44 | 23.1 | 8 | 0.0 | 0.0 | 1.0 | 2.0 | 3.0 | 3.0 | 4.0 | not cytotoxic after 2 hours |
| – | – | – | Oc1ccccc1 [Phenol 0.5%, Phenol] | 10.9 | 13.2 | 11.3 | 13.6 | 10.4 | 14.2 | 8.5 | 3.0 ± 0.0 | 3.0 ± 0.0 | 3.0 ± 0.0 | 3.0 ± 0.0 | 3.0 ± 0.0 | 3.0 ± 0.0 | 4.0 ± 0.0 | observed at all time points |
| 89.0 | 88.9 | 89.6 | O=S(=O)([O-])CCS.[Na+] [Mesna powder, Sodium 2-mercaptoethanesulfonate] | – | – | – | – | – | – | – | – | – | – | – | – | – | – | – |
| – | – | – | O=S(=O)([O-])CCS.[Na+] [Mesna 20%, Sodium 2-mercaptoethanesulfonate] | −10.2 | −1.2 | 47.2 | 11.8 | 4.6 | 12.1 | 18.3 | 0.0 | 1.0 | 2.0 | 3.0 | 3.0 | 3.0 | 4.0 | – |
| – | – | – | O=S(=O)([O-])CCS.[Na+] [Mesna 10%, Sodium 2-mercaptoethanesulfonate] | 62.3 | 54.8 | 20.6 | 4.1 | 3.2 | 3.3 | 1.1 | 0.0 ± 0.0 | 0.0 ± 0.0 | 1.0 ± 0.0 | 3.0 ± 0.0 | 3.0 ± 0.0 | 3.0 ± 0.0 | 4 ± 0 | – |
| – | – | – | [Cl-].[Na+] [NaCl 3.53%, NaCl] | 82.7 | 55.4 | 16.3 | 12.7 | 10.5 | 14.4 | 7.2 | 0.0 ± 0.0 | 0.0 ± 0.0 | 2 ± 1.4 | 3.0 ± 0.0 | 3.0 ± 0.0 | 3.0 ± 0.0 | 4 ± 0 | – |

Source: US20200289144A1, “DEVICE, METHOD AND FORMULATION FOR CHEMICALLY ASSISTED DISSECTION” (priority 2016, published 2020)
